Experimental data taken from PubChem BioAssay AID298 (DTP/NCI, 2004).
Several values for one entry are separate records, joined by “and”; a condition that tells them apart may be missing. Equal values may be shown once. Results filed as inconclusive are left out.

Test system: MX-1 breast xenograft, intrarenal, nude mice, tumor weight
Experiment: NCI In Vivo Anticancer Drug Screen. Data for tumor model Human Mammary Carcinoma MX-1 Xenograft (intrarenal inoculation) in NU/NU BALB/C (nude) mice
Conditions: endpoint: mean tumor weight change, higher = larger tumour
Outline: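 Compounds were given to mice carrying transplanted tumors, and tumor size or survival was measured. Each value is the treated-group measurement (T) divided by the vehicle-treated control-group measurement (C).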

[1] = dose: 150.0 mg/kg/injection, schedule: Q04DX003 (ip), vehicle: other
[2] = dose: 300.0 mg/kg/injection, schedule: Q04DX003 (ip), vehicle: other
[3] = dose: 600.0 mg/kg/injection, schedule: Q04DX003 (sc), vehicle: saline with Tween-80
[4] = dose: 100.0 mg/kg/injection, schedule: Q04DX003 (ip), vehicle: saline with Tween-80
[5] = dose: 200.0 mg/kg/injection, schedule: Q04DX003 (ip), vehicle: saline with Tween-80
[6] = dose: 50.0 mg/kg/injection, schedule: Q04DX003 (ip), vehicle: saline with Tween-80
[7] = dose: 10.0 mg/kg/injection, schedule: Q04DX003 (ip), vehicle: Klucel (hydroxypropylcellulose) (HPC)
[8] = dose: 20.0 mg/kg/injection, schedule: Q04DX003 (ip), vehicle: Klucel (hydroxypropylcellulose) (HPC)
[9] = dose: 25.0 mg/kg/injection, schedule: Q04DX003 (ip), vehicle: saline with Tween-80

Nc1nc(=S)c2[nH]cnc2[nH]1
T/C (dose: 1.6 mg/kg/injection, schedule: Q01DX010 (sc), vehicle: Klucel (hydroxypropylcellulose) (HPC)): 50 % of control

NC(=S)N/N=C/c1cc(=O)c2cc(Cl)ccc2o1
T/C [1]: 117 % of control
T/C [2]: 103 % of control
T/C (dose: 600.0 mg/kg/injection, schedule: Q04DX003 (ip), vehicle: other): 117 % of control
T/C (dose: 1200.0 mg/kg/injection, schedule: Q04DX003 (ip), vehicle: other): 106 % of control

COC(=O)Nc1nc2ccc(C3(c4ccc(F)cc4)OCCO3)cc2[nH]1
T/C [3]: 190 % of control

NC(=S=O)C(N)=S=O
T/C (dose: 125.0 mg/kg/injection, schedule: Q04DX003 (ip), vehicle: saline with Tween-80): 42 % of control
T/C (dose: 250.0 mg/kg/injection, schedule: Q04DX003 (ip), vehicle: saline with Tween-80): 65 % of control
T/C (dose: 500.0 mg/kg/injection, schedule: Q04DX003 (ip), vehicle: saline with Tween-80): 60 % of control

CNC(=O)Oc1ccc(S(=O)(=O)c2ccc(OC(=O)NC)cc2)cc1
T/C (dose: 150.0 mg/kg/injection, schedule: Q04DX003 (ip), vehicle: saline with Tween-80): 98 % of control
T/C (dose: 300.0 mg/kg/injection, schedule: Q04DX003 (ip), vehicle: saline with Tween-80): 89 % of control
T/C (dose: 600.0 mg/kg/injection, schedule: Q04DX003 (ip), vehicle: saline with Tween-80): 33 % of control

c1ccc(P(CCNCCP(c2ccccc2)c2ccccc2)c2ccccc2)cc1
T/C [4]: 111 % of control
T/C [5]: 106 % of control
T/C (dose: 800.0 mg/kg/injection, schedule: Q04DX003 (ip), vehicle: saline with Tween-80): 81 % of control

NC(=O)C1=CC2C3C=CC2(O)C(=O)OC3O1 (stereo not drawn)
T/C (dose: 37.5 mg/kg/injection, schedule: Q04DX003 (ip), vehicle: Klucel (hydroxypropylcellulose) (HPC)): 54 % of control
T/C (dose: 75.0 mg/kg/injection, schedule: Q04DX003 (ip), vehicle: Klucel (hydroxypropylcellulose) (HPC)): 42 % of control

CN(C)N=Nc1ccc(C(N)=O)cc1
T/C [6]: 85 % of control
T/C [4]: 78 % of control
T/C [5]: 80 % of control

COc1cc2c(c(OC)c1OC)-c1ccc(OC)c(=O)cc1[C@@H](NC(C)=O)CC2
T/C (dose: 0.5 mg/kg/injection, schedule: Q04DX003 (ip), vehicle: saline): 41 % of control and 48 % of control
T/C (dose: 1.0 mg/kg/injection, schedule: Q04DX003 (ip), vehicle: saline): 17 % of control and 20 % of control

COc1ccc(N=N/N=c2\sc3cc(OC)ccc3n2C)cc1
T/C (dose: 30.0 mg/kg/injection, schedule: Q04DX003 (ip), vehicle: saline with Tween-80): 68 % of control
T/C (dose: 60.0 mg/kg/injection, schedule: Q04DX003 (ip), vehicle: saline with Tween-80): 87 % of control
T/C (dose: 120.0 mg/kg/injection, schedule: Q04DX003 (ip), vehicle: saline with Tween-80): 65 % of control
T/C (dose: 240.0 mg/kg/injection, schedule: Q04DX003 (ip), vehicle: saline with Tween-80): 62 % of control

CO[C@H](/C(C)=C/C=C/C(C)=C/c1coc(C)n1)[C@H](C)[C@H]1C[C@@H](O)[C@@]2(C)O[C@H]2/C=C/[C@@H](C)[C@@H]2C[C@@H](CC(=O)O2)C[C@H]2O[C@@H]2C(=O)O1
T/C (dose: 0.13 mg/kg/injection, schedule: Q04DX003 (ip), vehicle: other): 62 % of control
T/C (dose: 0.2 mg/kg/injection, schedule: Q04DX003 (ip), vehicle: other): 67 % of control
T/C (dose: 0.25 mg/kg/injection, schedule: Q04DX003 (ip), vehicle: Klucel (hydroxypropylcellulose) (HPC)): 10 % of control
T/C (dose: 0.25 mg/kg/injection, schedule: Q04DX003 (sc), vehicle: Klucel (hydroxypropylcellulose) (HPC)): 46 % of control and 55 % of control and 63 % of control
T/C (dose: 0.3 mg/kg/injection, schedule: Q04DX003 (ip), vehicle: other): 55 % of control
T/C (dose: 0.44 mg/kg/injection, schedule: Q04DX003 (ip), vehicle: other): 27 % of control
T/C (dose: 0.5 mg/kg/injection, schedule: Q04DX003 (ip), vehicle: Klucel (hydroxypropylcellulose) (HPC)): 7 % of control
T/C (dose: 0.5 mg/kg/injection, schedule: Q04DX003 (sc), vehicle: Klucel (hydroxypropylcellulose) (HPC)): 35 % of control and 36 % of control and 41 % of control
T/C (dose: 1.0 mg/kg/injection, schedule: Q04DX003 (ip), vehicle: Klucel (hydroxypropylcellulose) (HPC)): 5 % of control
T/C (dose: 1.0 mg/kg/injection, schedule: Q04DX003 (sc), vehicle: Klucel (hydroxypropylcellulose) (HPC)): 4 % of control and 19 % of control

CO[C@@H]1C2=CC=CC=C[C@H]2n2c(=O)n(C)c(=O)n21
T/C (dose: 75.0 mg/kg/injection, schedule: Q04DX003 (ip), vehicle: other): 36 % of control
T/C [1]: 34 % of control
T/C [2]: 92 % of control

O=C1C=CC2OC(c3ccccc3)C(O)C2O1 (stereo not drawn)
T/C (dose: 25.0 mg/kg/injection, schedule: Q04DX003 (ip), vehicle: DMSO): 114 % of control
T/C (dose: 50.0 mg/kg/injection, schedule: Q04DX003 (ip), vehicle: DMSO): 40 % of control

CCCCCCCC1C(=O)OC2CC3C(C)=CC(=O)C(O)C3(C)C3C4(O)OCC23C1C(C)C4O (stereo not drawn)
T/C [7]: 89 % of control
T/C [8]: 107 % of control
T/C (dose: 40.0 mg/kg/injection, schedule: Q04DX003 (ip), vehicle: Klucel (hydroxypropylcellulose) (HPC)): 53 % of control

CCC(=O)N(C)[C@@H](C)C(=O)O[C@H]1CC(=O)N(C)c2cc(cc(OC)c2Cl)C/C(C)=C/C=C[C@@H](OC)[C@@]2(O)C[C@H](OC(=O)N2)[C@@H](C)[C@@H]2O[C@@]12C
T/C (dose: 0.12 mg/kg/injection, schedule: Q04DX003 (sc), vehicle: saline + alcohol): 100 % of control
T/C (dose: 0.25 mg/kg/injection, schedule: Q04DX003 (sc), vehicle: saline + alcohol): 48 % of control
T/C (dose: 0.5 mg/kg/injection, schedule: Q04DX003 (sc), vehicle: saline + alcohol): 5 % of control
T/C (dose: 7.5 micrograms/kg/injection, schedule: Q04DX004 (ip), vehicle: saline + alcohol): 115 % of control
T/C (dose: 15.0 micrograms/kg/injection, schedule: Q04DX004 (ip), vehicle: saline + alcohol): 67 % of control

Cc1ccc(C(=O)Nc2ccc(S(=O)(=O)O)c3cc(S(=O)(=O)O)cc(S(=O)(=O)O)c23)cc1NC(=O)c1cccc(NC(=O)Nc2cccc(C(=O)Nc3cc(C(=O)Nc4ccc(S(=O)(=O)O)c5cc(S(=O)(=O)O)cc(S(=O)(=O)O)c45)ccc3C)c2)c1
T/C (dose: 50.0 mg/kg/injection, schedule: Q04DX003 (ip), vehicle: saline): 77 % of control
T/C (dose: 100.0 mg/kg/injection, schedule: Q04DX003 (ip), vehicle: saline): 56 % of control
T/C (dose: 200.0 mg/kg/injection, schedule: Q04DX003 (ip), vehicle: saline): 51 % of control

COc1cc2c(c(OC)c1O)-c1ccc(OC)c(=O)cc1[C@@H](NC(=O)C(F)(F)F)CC2
T/C (dose: 2.5 mg/kg/injection, schedule: Q04DX003 (ip), vehicle: Klucel (hydroxypropylcellulose) (HPC)): 62 % of control
T/C (dose: 5.0 mg/kg/injection, schedule: Q04DX003 (ip), vehicle: Klucel (hydroxypropylcellulose) (HPC)): 60 % of control
T/C [7]: 35 % of control
T/C [8]: 34 % of control

CC1(O)C=CC(=O)C=C1
T/C (dose: 25.0 mg/kg/injection, schedule: Q04DX003 (ip), vehicle: water): 96 % of control
T/C (dose: 50.0 mg/kg/injection, schedule: Q04DX003 (ip), vehicle: water): 64 % of control

O=[N+]([O-])c1ccc(Sc2ccncn2)c([N+](=O)[O-])c1
T/C (dose: 150.0 mg/kg/injection, schedule: Q04DX003 (sc), vehicle: saline with Tween-80): 158 % of control
T/C (dose: 300.0 mg/kg/injection, schedule: Q04DX003 (sc), vehicle: saline with Tween-80): 153 % of control
T/C [3]: 86 % of control
T/C (dose: 1200.0 mg/kg/injection, schedule: Q04DX003 (sc), vehicle: saline with Tween-80): 115 % of control

CNC(=S)C#N
T/C (dose: 75.0 mg/kg/injection, schedule: Q04DX003 (ip), vehicle: saline + Tween-80 + alcohol): 51 % of control

COc1cc(C2CC(C)(O)Oc3cc4c(cc32)OCO4)cc(OC)c1OC (stereo not drawn)
T/C [9]: 86 % of control
T/C [6]: 75 % of control
T/C [4]: 73 % of control and 74 % of control
T/C [5]: 46 % of control

Cc1cc(N)c2ccccc2[n+]1CCCCCCCCCC[n+]1c(C)cc(N)c2ccccc21
T/C (dose: 0.75 mg/kg/injection, schedule: Q01DX010 (ip), vehicle: dextrose): 89 % of control
T/C (dose: 1.5 mg/kg/injection, schedule: Q01DX010 (ip), vehicle: dextrose): 79 % of control
T/C (dose: 2.0 mg/kg/injection, schedule: Q01DX010 (ip), vehicle: dextrose): 47 % of control
T/C (dose: 3.0 mg/kg/injection, schedule: Q01DX010 (ip), vehicle: dextrose): 41 % of control

Cc1ccc(C(=Nc2ccccc2)N=P(c2ccccc2)(c2ccccc2)c2ccccc2)cc1
T/C [6]: 68 % of control
T/C [4]: 45 % of control

COc1ccc(C(C)c2cc3c(cc2OC)OCO3)cc1 (stereo not drawn)
T/C (dose: 12.5 mg/kg/injection, schedule: Q04DX003 (ip), vehicle: saline with Tween-80): 88 % of control
T/C [9]: 79 % of control
T/C [6]: 83 % of control
T/C [4]: 53 % of control

COc1ccc2oc3c(ccc[n+]3C)c(=O)c2c1
T/C [5]: 116 % of control
